Source: US8163777B2, “Benzimidazolyl-pyridine compounds for inflammation and immune-related uses” (Synta Pharmaceuticals Corp., priority 2006, dated 2012)

Tests used:
[1] = system: IL-2, IL-4, IL-5, IL-13, GM-CSF, INF-γ and TNF-α; assay: Inhibition of multiple cytokines in primary human PBMCs (summary statement); format: cell-based; settings: PHA-stimulated PBMCs
Experimental: Cytokine production was measured using commercially available human ELISA assay kits (from Cell Science, Inc.) following the manufacturers instructions.

[2] = system: IL-2 production; assay: Inhibition of IL-2 production in PHA-activated Jurkat cells (ELISA); format: cell-based; settings: Homo sapiens, PHA 2.5 μg/mL, 20 hours
Experimental: Jurkat cells were placed in a 96 well plate (0.5 million cells per well in 1% FBS medium) then test compounds of this invention were added at different concentrations. After 10 minutes, the cells were activated with PHA (final concentration 2.5 μg/mL) and incubated for 20 hours at 37° C. under CO2. The final volume was 200 μL. Following incubation, the cells were centrifuged and the supernatants collected and stored at −70° C. prior to assaying for IL-2 production. A commercial ELISA kit (IL-2 Eli-pair, Diaclone Research, Besancon, France) was used to detect production of IL-2, from which dose response curves were obtained. The IC50 value was calculated as the concentration at which 50% of maximum IL-2 production after stimulation was inhibited versus a non-stimulation control.

[3] = bin given with mixed units 500 nM-1 μM

Structure (SMILES) | IC50 ([2]; binned values) [nM] | other results
CC(C)(C)OC(=O)Nc1ccc(C(=O)Nc2ccc(-n3c(C(F)(F)F)nc4ccccc43)cc2)c(F)c1F [Compound 31, N-(4-{N-[4-(2-trifluoromethyl-benzoimidazol-1-yl)-phenyl]-carbamoyl}-2,3-difluoro-phenyl)-carbamic acid t-butyl ester] | – | inhibition of IL-2, IL-4, IL-5, IL-13, GM-CSF, INF-γ and TNF-α (in words) [1]: potent inhibitors
CCCCc1ccc(C(=O)Nc2ccc(-n3c(C(F)(F)F)nc4cc(OC)ccc43)cc2)cc1 [Compound 66, 4-Butyl-N-[4-(2-trifluoromethyl-5-methoxy-benzoimidazol-1-yl)-phenyl]-benzamide] | – | inhibition of IL-2, IL-4, IL-5, IL-13, GM-CSF, INF-γ and TNF-α (in words) [1]: potent inhibitors
COc1ccc2c(c1)nc(C(F)(F)F)n2-c1ccc(NC(=O)c2cccc(F)c2)nc1 [Compound 186, 3-Fluoro-N-[5-(5-methoxy-2-trifluoromethyl-benzoimidazol-1-yl)-pyridin-2-yl]-benzamide] | – | IC50 [2, 3]: 500 to 1000 nM
COc1ccc2c(c1)nc(C(F)(F)F)n2-c1ccc(NC(=O)c2csnc2C)nc1 [Compound 194, 3-Methyl-isothiazole-4-carboxylic acid [5-(5-methoxy-2-trifluoromethyl-benzoimidazol-1-yl)-pyridin-2-yl]-amide] | – | IC50 [2, 3]: 500 to 1000 nM
COc1ccc2c(c1)nc(C(F)(F)F)n2-c1ccc(NC(=O)c2ccc(Br)cc2)nc1 [Compound 196, 4-Bromo-N-[5-(5-methoxy-2-trifluoromethyl-benzoimidazol-1-yl)-pyridin-2-yl]-benzamide] | 100 to 500 | –
COc1ccc2c(c1)nc(C(F)(F)F)n2-c1ccc(NC(=O)c2cccc(C)c2)nc1 [Compound 198, N-[5-(5-Methoxy-2-trifluoromethyl-benzoimidazol-1-yl)-pyridin-2-yl]-3-methyl-benzamide] | – | IC50 [2, 3]: 500 to 1000 nM
COc1ccc2c(c1)nc(C(F)(F)F)n2-c1ccc(NC(=O)c2ccc(C)cc2C)nc1 [Compound 200, N-[5-(5-Methoxy-2-trifluoromethyl-benzoimidazol-1-yl)-pyridin-2-yl]-2,4-dimethyl-benzamide] | – | IC50 [2, 3]: 500 to 1000 nM
COc1ccc2c(c1)nc(C(F)(F)F)n2-c1ccc(NC(=O)c2ccncc2F)nc1 [Compound 201, 3-Fluoro-N-[5-(5-methoxy-2-trifluoromethyl-benzoimidazol-1-yl)-pyridin-2-yl]-isonicotinamide] | 100 to 500 | –
COc1ccc2c(c1)nc(C(F)(F)F)n2-c1ccc(NC(=O)c2ccc(N(C)C)cc2)nc1 [Compound 203, 4-Dimethylamino-N-[5-(5-methoxy-2-trifluoromethyl-benzoimidazol-1-yl)-pyridin-2-yl]-benzamide] | > 1000 | –
COc1cccc(C(=O)Nc2ccc(-n3c(C(F)(F)F)nc4cc(OC)ccc43)cn2)c1 [Compound 204, 3-Methoxy-N-[5-(5-methoxy-2-trifluoromethyl-benzoimidazol-1-yl)-pyridin-2-yl]-benzamide] | > 1000 | –
COc1ccc2c(c1)nc(C(F)(F)F)n2-c1ccc(NC(=O)c2csnn2)nc1 [Compound 205, [1,2,3]Thiadiazole-4-carboxylic acid [5-(5-methoxy-2-trifluoromethyl-benzoimidazol-1-yl)-pyridin-2-yl]-amide] | > 1000 | –
COc1ccc2c(c1)nc(C(F)(F)F)n2-c1ccc(NC(=O)c2ccccc2OC)nc1 [Compound 206, 2-Methoxy-N-[5-(5-methoxy-2-trifluoromethyl-benzoimidazol-1-yl)-pyridin-2-yl]-benzamide] | > 1000 | –
CCCc1ccc(C(=O)Nc2ccc(-n3c(C(F)(F)F)nc4cc(OC)ccc43)cn2)cc1 [Compound 207, N-[5-(5-Methoxy-2-trifluoromethyl-benzoimidazol-1-yl)-pyridin-2-yl]-4-propyl-benzamide] | > 1000 | –
COc1ccc2c(c1)nc(C(F)(F)F)n2-c1ccc(NC(=O)c2cccc(N(C)C)c2)nc1 [Compound 208, 3-Dimethylamino-N-[5-(5-methoxy-2-trifluoromethyl-benzoimidazol-1-yl)-pyridin-2-yl]-benzamide] | > 1000 | –
COc1ccc2c(c1)nc(C(F)(F)F)n2-c1ccc(NC(=O)c2cccc(SC)c2)nc1 [Compound 209, N-[5-(5-Methoxy-2-trifluoromethyl-benzoimidazol-1-yl)-pyridin-2-yl]-3-methylsulfanyl-benzamide] | > 1000 | –
COc1ccc2c(c1)nc(C(F)(F)F)n2-c1ccc(NC(=O)c2ccc(SC)cc2)nc1 [Compound 210, N-[5-(5-Methoxy-2-trifluoromethyl-benzoimidazol-1-yl)-pyridin-2-yl]-4-methylsulfanyl-benzamide] | > 1000 | –
COc1ccc2c(c1)nc(C(F)(F)F)n2-c1ccc(NC(=O)c2ccc(C)cc2)nc1 [Compound 211, N-[5-(5-Methoxy-2-trifluoromethyl-benzoimidazol-1-yl)-pyridin-2-yl]-4-methyl-benzamide] | > 1000 | –
CNCc1ccc(C(=O)Nc2ccc(-n3c(C(F)(F)F)nc4cc(OC)ccc43)cn2)cc1 [Compound 212, N-[5-(5-Methoxy-2-trifluoromethyl-benzoimidazol-1-yl)-pyridin-2-yl]-4-methylaminomethyl-benzamide] | > 1000 | –
COc1ccc2c(c1)nc(C(F)(F)F)n2-c1ccc(NC(=O)C(C)(C)C)nc1 [Compound 213, N-[5-(5-Methoxy-2-trifluoromethyl-benzoimidazol-1-yl)-pyridin-2-yl]-2,2-dimethyl-propionamide] | > 1000 | –
COc1ccc2c(c1)nc(C(F)(F)F)n2-c1ccc(NC(=O)C(C)C)nc1 [Compound 214, N-[5-(5-Methoxy-2-trifluoromethyl-benzoimidazol-1-yl)-pyridin-2-yl]-isobutyramide] | > 1000 | –
CCc1ccc(C(=O)Nc2ccc(-n3c(C(F)(F)F)nc4cc(OC)ccc43)cn2)cc1 [Compound 215, 4-Ethyl-N-[5-(5-methoxy-2-trifluoromethyl-benzoimidazol-1-yl)-pyridin-2-yl]-benzamide] | > 1000 | –
COc1ccc2c(c1)nc(C(F)(F)F)n2-c1ccc(NC(=O)c2ncc[nH]2)nc1 [Compound 216, 1H-Imidazole-2-carboxylic acid [5-(5-methoxy-2-trifluoromethyl-benzoimidazol-1-yl)-pyridin-2-yl]-amide] | > 1000 | –

Continued, in another order:

IC50 ([2]; binned values) [nM] | Structure (SMILES) | other results
100 to 500 | COc1ccc2c(c1)nc(C(F)(F)F)n2-c1ccc(NC(=O)c2cccc(C#N)c2)nc1 [Compound 183, 3-Cyano-N-[5-(5-methoxy-2-trifluoromethyl-benzoimidazol-1-yl)-pyridin-2-yl]-benzamide] | –
100 to 500 | COc1ccc2c(c1)nc(C(F)(F)F)n2-c1ccc(NC(=O)c2cccc([N+](=O)[O-])c2)nc1 [Compound 184, N-[5-(5-Methoxy-2-trifluoromethyl-benzoimidazol-1-yl)-pyridin-2-yl]-3-nitro-benzamide] | –
< 100 | COc1ccc2c(c1)nc(C(F)(F)F)n2-c1ccc(NC(=O)c2ccccc2F)nc1 [Compound 185, 2-Fluoro-N-[5-(5-methoxy-2-trifluoromethyl-benzoimidazol-1-yl)-pyridin-2-yl]-benzamide] | –
< 100 | COc1ccc2c(c1)nc(C(F)(F)F)n2-c1ccc(NC(=O)c2ccccc2I)nc1 [Compound 187, 2-Iodo-N-[5-(5-methoxy-2-trifluoromethyl-benzoimidazol-1-yl)-pyridin-2-yl]-benzamide] | –
< 100 | COc1ccc2c(c1)nc(C(F)(F)F)n2-c1ccc(NC(=O)CC(C)C)nc1 [Compound 189, N-[5-(5-Methoxy-2-trifluoromethyl-benzoimidazol-1-yl)-pyridin-2-yl]-3-methyl-butyramide] | –
100 to 500 | COc1ccc2c(c1)nc(C(F)(F)F)n2-c1ccc(NC(=O)c2ccc([N+](=O)[O-])cc2)nc1 [Compound 190, N-[5-(5-Methoxy-2-trifluoromethyl-benzoimidazol-1-yl)-pyridin-2-yl]-4-nitro-benzamide] | –
100 to 500 | COc1ccc2c(c1)nc(C(F)(F)F)n2-c1ccc(NC(=O)c2cccc(Br)c2)nc1 [Compound 191, 3-Bromo-N-[5-(5-methoxy-2-trifluoromethyl-benzoimidazol-1-yl)-pyridin-2-yl]-benzamide] | –
100 to 500 | COC(=O)c1cccc(C(=O)Nc2ccc(-n3c(C(F)(F)F)nc4cc(OC)ccc43)cn2)c1 [Compound 192, N-[5-(5-Methoxy-2-trifluoromethyl-benzoimidazol-1-yl)-pyridin-2-yl]-isophthalamic acid methyl ester] | –
< 100 | COc1ccc2c(c1)nc(C(F)(F)F)n2-c1ccc(NC(=O)C2CCCC2)nc1 [Compound 193, Cyclopentanecarboxylic acid [5-(5-methoxy-2-trifluoromethyl-benzoimidazol-1-yl)-pyridin-2-yl]-amide] | –
100 to 500 | COc1ccc2c(c1)nc(C(F)(F)F)n2-c1ccc(NC(=O)c2scnc2Br)nc1 [Compound 195, 4-Bromo-thiazole-5-carboxylic acid [5-(5-methoxy-2-trifluoromethyl-benzoimidazol-1-yl)-pyridin-2-yl]-amide] | –
< 100 | COc1ccc2c(c1)nc(C(F)(F)F)n2-c1ccc(NC(=O)c2ccccc2[N+](=O)[O-])nc1 [Compound 197, 2-Nitro-N-[5-(5-methoxy-2-trifluoromethyl-benzoimidazol-1-yl)-pyridin-2-yl]-benzamide] | –
< 100 | COc1ccc2c(c1)nc(C(F)(F)F)n2-c1ccc(NC(=O)c2cccc(C)c2C)nc1 [Compound 202, N-[5-(5-Methoxy-2-trifluoromethyl-benzoimidazol-1-yl)-pyridin-2-yl]-2,3-dimethyl-benzamide] | –
